The target of assay [1] is T1, NF-κB (Homo sapiens, UniProt P19838+Q04206).
T1 construct: nuclear protein extracts from myometrial cells; endogenous in cells; host or cells: primary human myometrial cells (term, passage 1-4)
Description: EMSA of NF-κB DNA binding in nuclear extracts of treated amnion cells. The conditions noted are these: L− and L+ amnion cells, treated 2 h, then IL-1β 15 min. The class given is cell-based. The procedure: Placentae were obtained from patients at term either at elective Caesarean section prior to labour (L−) or following spontaneous labour onset and vaginal delivery (L+). Amnion cells were prepared as described in Bennett et al., (1989). Briefly, the amnion was separated from the placenta, washed 3× in PBS, cut into strips, and incubated in 0.5 mM EDTA in PBS for 15 min. The strips were washed in PBS 2× and digested with 2.5 mg/ml dispase in serum-free DMEM for 35 min at 37° C. The amnion was then shaken vigorously in DMEM, 10% FCS to dissociate the cells, the remaining strips discarded, and the cell suspension pelleted at 175 g for 10 min and cultured in DMEM, 10% FCS (Sigma), 1% L-glutamine, 1% penicillin-streptomycin.
(§1) Nuclear and cytosolic protein extracts were obtained from cultured amnion cells as described by Schreiber et al (1989). For nuclear/cytosolic fractionation, confluent cell monolayers were scraped and lysed using a buffer containing 10 mM HEPES, 10 mM KCl, 0.1 mM EDTA, 0.1 mM EGTA, 2 mM DTT, 1% (v/v) NP-40 and complete protease inhibitor tablets (CPIs, Roche), diluted to manufacturer's instructions. Cell lysates were incubated on ice for 10 min and NP-40 added to a final concentration of 1% (v/v). Lysates were vortexed for 10 secs and centrifuged for 30 secs at 4° C., 12000 g. The supernatants were retained as the cytosolic protein extracts. The pellets were resuspended in buffer containing 10 mM HEPES, 10 mM KCl, 0.1 mM EDTA, 0.1 mM EGTA, 2 mM DTT, 400 mM NaCl, 1% NP-40 (v/v) and CPIs. Samples were shaken vigorously for 15 min in an ice bath. The nuclear protein extracts were obtained in the supernatant following a 5 min centrifugation at 4° C., 12000 g.
Sense and antisense strands (175 nmole/ml each) were incubated in annealing buffer (10 mM Tris-HCl pH7.5, 100 mM NaCl, 1 mM EDTA) for 10 min at 65° C., and allowed to cool at room temperature for 2 h. 3.5 pmole double-stranded oligonucleotides were end-labelled with 0.37 MBq ^32P(γATP) by incubating for 30 min at 37° C. with T4 polynucleotide kinase. Labelled oligonucleotides were recovered by centrifugation at 3000 rpm for 2 min through MicroSpin G-25 or G-50 sephadex columns (Amersham Biosciences).
3-5 μg protein extracts were incubated on ice for 1 h with non-radiolabelled non-specific oligonucleotide (poly(dI-dC) or Oct-1) in a binding buffer (20% (v/V) glycerol, 5 mM MgCl2, 2 mM EDTA, 50 mM Tris-HCl pH7.5, 250 mM NaCl, 2 mM DTT), followed by a 45 min incubation with 0.035 pmole ^32P(γ(ATP)-end labelled oligonucleotide probes:
Oct-1 or SP-1 consensus sequences were used as a controls for a NF-κB-specific effect. The resulting protein/DNA complexes were separated in a 4% acrylamide gel, the gel dried under vacuum at 80° C. and exposed to X-ray film. For supershift analysis, samples were incubated with 2 μg antibodies for 30 min on ice prior to incubation with oligonucleotides. Non-radio-labelled oligonucleotides were used at 100-fold molar excess for specific and non-specific competition for DNA binding. Reagents for EMSA were obtained from Promega Life Sciences, Delta House, Chilworth Research Centre, Southampton SO16 7NS, United Kingdom.

Assay [2] has as its system NF-κB. Description: Western immunoblot of p65, p50, IκB in myometrial cell extracts. It counts as cell-based, human. The conditions noted are these: myometrial cells; for IL-1β-induced p65 nuclear translocation: treated 2 h. The procedure: Western immunoblots of nuclear or cytosolic protein extracts from (A) myometrial cells, (B) L− amnion cells, and (C) L+ amnion cells treated with 15dPGJ2 or vehicle for 2 h±IL-1β stimulation (15 min). Blots probed with antibodies against p65, p50 or IκBα.
Western immunoblots of nuclear or cytosolic protein extracts from myometrial cells treated with PGA1 or vehicle for 2 h followed by IL-1β stimulation (15 min). Blots probed with antibodies against p65 or IκBa.
Western immunoblots of cytosolic extracts from myometrial cells (A) treated with 15dPGJ2 for 2h±IL1b for 15 min; probed for IKK, and (B) treated with […] 15dPGJ2, […] MG132 or vehicle for 2 h, ±IL-1β for 15 min; probed for IκBα.
(A) NF-κB-DNA binding was measured by EMSA in nuclear protein extracts from myometrial cells pre-treated with vehicle, 15d-PGJ2 or PGA1 for 2 h, followed by stimulation with IL-1β (1 ng/ml) for 15 min. Antibodies against p50 and p65 were used for supershift analysis. (B) Myometrial cells were transiently transfected with a NF-κB-LUC reporter and a β-gal reporter plasmid, pre-treated with vehicle or PGA1 for 2 h, and stimulated with IL-1β (1 ng/ml) for 6 h. Luciferase activity was normalized for β-gal reporter readout. Values are presented as the mean±SEM obtained for each treatment done in triplicate. Western blot analysis of nuclear p65 and p50 expression in myometrial cells treated with (C) PGA1 or (D) 15d-PGJ2 for 2 h, followed by stimulation with IL-1β (1 ng/ml) for 15 min. (E) Western blot analysis of whole cell lysates from myometrial cells treated with 15d-PGJ2 or 9,10-dihydro-15d-PGJ2 for 2 h, followed by stimulation with IL-1β (1 ng/ml) for 15 min. Membranes were probed with antibodies against p65 and Ser 536-phosphorylated p65.
Myometrial tissue was collected at term from the upper margin of uterine incision at the time of lower segment caesarean section either prior to the onset of labour (L−) or […] (L+). L+ samples were collected by Dr Mark Johnson and Dr S Soorrana at Chelsea & Westminster Hospital. Myometrial tissue was dissected, rinsed in PBS, and digested in serum-free DMEM containing 15 mg/ml collagenase 1A (Sigma), 15 mg/ml collagenase X, and 50 mg/ml bovine serum albumin for 45 min at 37° C. The cell suspension was filtered through a cell strainer, centrifuged at 400 g for 5 min, and the pellet re-suspended and plated out in DMEM, 10% FCS (Helena BioScience), 1% L-glutainine, 1% penicillin-streptomycin. Cells were used between passage numbers 1-4.
as §1
Protein samples (20-70 μg) were mixed with Laemmli sample buffer (1:1) containing β-mercaptoethanol (5%), and boiled for 5 min. Proteins were then separated by SDS-PAGE (12-14% gels) and transferred onto PVDF membrane (Amersham Pharmacia Biotech). The membranes were blocked overnight in 5% non-fat milk prepared in PBS-T buffer, at 4° C. The blots were incubated with the primary antibody in 1% non-fat milk in PBS-T buffer for 1 h, and washed three times (10 min each) in PBS-T with vigorous shaking. […]

“Also recorded” adds a separate entry of the source.

T1 sequence (Q04206 whole entry): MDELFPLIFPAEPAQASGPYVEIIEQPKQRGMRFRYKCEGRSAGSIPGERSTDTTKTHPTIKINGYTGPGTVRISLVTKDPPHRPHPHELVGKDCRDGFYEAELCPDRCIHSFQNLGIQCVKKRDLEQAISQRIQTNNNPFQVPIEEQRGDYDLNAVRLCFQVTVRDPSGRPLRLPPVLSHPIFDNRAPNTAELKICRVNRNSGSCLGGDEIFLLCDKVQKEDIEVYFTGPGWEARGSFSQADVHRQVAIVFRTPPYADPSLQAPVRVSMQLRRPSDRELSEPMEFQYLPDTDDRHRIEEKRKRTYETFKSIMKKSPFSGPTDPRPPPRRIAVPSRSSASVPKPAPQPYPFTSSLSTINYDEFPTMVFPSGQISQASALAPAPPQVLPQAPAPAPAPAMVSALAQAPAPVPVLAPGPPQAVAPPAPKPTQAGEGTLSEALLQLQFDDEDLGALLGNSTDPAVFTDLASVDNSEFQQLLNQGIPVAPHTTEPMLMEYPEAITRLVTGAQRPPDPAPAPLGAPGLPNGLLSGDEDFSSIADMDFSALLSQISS
T1 sequence (P19838 1-433 limits assumed): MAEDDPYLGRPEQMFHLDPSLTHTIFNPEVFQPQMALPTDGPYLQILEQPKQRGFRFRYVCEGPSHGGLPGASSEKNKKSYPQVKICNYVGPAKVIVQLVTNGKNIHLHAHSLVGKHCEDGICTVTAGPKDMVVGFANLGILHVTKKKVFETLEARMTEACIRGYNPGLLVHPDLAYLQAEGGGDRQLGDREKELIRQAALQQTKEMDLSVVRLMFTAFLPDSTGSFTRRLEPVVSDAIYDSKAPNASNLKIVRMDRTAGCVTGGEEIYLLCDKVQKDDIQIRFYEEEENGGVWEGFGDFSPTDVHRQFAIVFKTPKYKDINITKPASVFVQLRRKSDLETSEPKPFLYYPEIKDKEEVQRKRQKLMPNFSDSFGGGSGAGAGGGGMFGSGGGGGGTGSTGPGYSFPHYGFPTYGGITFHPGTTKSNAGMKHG

As to `CCCCCC=CC=C1C(=O)C=C[C@@H]1CC=CCCCC(=O)O` [15d-PGJ2, 15-deoxy-Δ^12,14prostaglandin J2], at NF-κB [1], the “IL-1β-induced NF-κB DNA binding (EMSA)” value was “inhibited IL1-β-induced NF-κB DNA binding in a dose-dependent manner”. On NF-κB [1] (listed as 15dPGJ2), the “IL-1β-induced NF-κB DNA binding (EMSA)” value is recorded as “inhibition”. Besides, in the assay with NF-κB [2], the “IL-1β-induced IκBα degradation” value is given as “inhibition”, the “IL-1β-induced IκBβ degradation” value is “inhibition”, the “IL-1β-induced p50 phosphorylation” value is “inhibition” and the IκBα phosphorylation entry is given as “inhibits”. Also, the “Accumulation of phosphorylated IκBα” value in the assay on NF-κB [2] (2 h, IL-1β 15 min) is reported as “not detected”. In addition, in the assay with NF-κB [2] (IL-1β 15 min), the “IL-1β-induced p65 nuclear translocation” value was “inhibited”. For the same molecule, the “IL-1β-induced p65 nuclear translocation” value with NF-κB [2] (IL-1β 15 min, listed as 15dPGJ2) is “inhibition”.

Regarding `CCCCC[C@H](O)/C=C/[C@H]1C=CC(=O)[C@@H]1CCCCCCC(=O)O` [PGA1, prostaglandin A1], the “IL-1β-induced NF-κB DNA binding (EMSA)” value at NF-κB [1] is reported as “inhibition”. In the assay with NF-κB [2], the “IL-1β-induced IκBα degradation” value is reported as “inhibition”. The “Reproduction of the effects of 15d-PGJ2 on NF-κB (incl. Ser 536-phosphorylated p65)” value in the assay with NF-κB [2] (2 h, IL-1β 15 min, similar in amnion epithelial cells) is given as “shares the effect of 15d-PGJ2”. Besides, the “IL-1β-induced p65 nuclear translocation” value in the assay on NF-κB [2] (IL-1β 15 min) is recorded as “inhibition; also recorded: inhibited”.
